pEC50, pIC50: −log10 of the molar value. Active and inactive are the calls of the source. No cut-off for these calls is given here.
Key:
[1] = tested on: liver microsomes (Homo sapiens); experiment: Half life in human liver microsomes
[2] = tested on: VCaP; experiment: Antiproliferative activity against human VCaP cells expressing wild-type androgen receptor assessed as reduction in cell viability incubated for 5 days in presence of R1881 by CellTiter-glo assay; type: functional, cell-based; conditions: 120 h
[3] = tested on: T1, Androgen receptor (Homo sapiens), P10275 [F877L]; experiment: Antagonist activity at AR F877L mutant (unknown origin) transfected in human LNCAP cells cotransfected with ARE-LUC incubated for 20 to 24 hrs in presence of AR agonist R1881 by steady-glo luciferase reporter gene assay relative to control; type: cell-based; conditions: filed as antagonist, time 20-24 hrs
T1 sequence (whole entry): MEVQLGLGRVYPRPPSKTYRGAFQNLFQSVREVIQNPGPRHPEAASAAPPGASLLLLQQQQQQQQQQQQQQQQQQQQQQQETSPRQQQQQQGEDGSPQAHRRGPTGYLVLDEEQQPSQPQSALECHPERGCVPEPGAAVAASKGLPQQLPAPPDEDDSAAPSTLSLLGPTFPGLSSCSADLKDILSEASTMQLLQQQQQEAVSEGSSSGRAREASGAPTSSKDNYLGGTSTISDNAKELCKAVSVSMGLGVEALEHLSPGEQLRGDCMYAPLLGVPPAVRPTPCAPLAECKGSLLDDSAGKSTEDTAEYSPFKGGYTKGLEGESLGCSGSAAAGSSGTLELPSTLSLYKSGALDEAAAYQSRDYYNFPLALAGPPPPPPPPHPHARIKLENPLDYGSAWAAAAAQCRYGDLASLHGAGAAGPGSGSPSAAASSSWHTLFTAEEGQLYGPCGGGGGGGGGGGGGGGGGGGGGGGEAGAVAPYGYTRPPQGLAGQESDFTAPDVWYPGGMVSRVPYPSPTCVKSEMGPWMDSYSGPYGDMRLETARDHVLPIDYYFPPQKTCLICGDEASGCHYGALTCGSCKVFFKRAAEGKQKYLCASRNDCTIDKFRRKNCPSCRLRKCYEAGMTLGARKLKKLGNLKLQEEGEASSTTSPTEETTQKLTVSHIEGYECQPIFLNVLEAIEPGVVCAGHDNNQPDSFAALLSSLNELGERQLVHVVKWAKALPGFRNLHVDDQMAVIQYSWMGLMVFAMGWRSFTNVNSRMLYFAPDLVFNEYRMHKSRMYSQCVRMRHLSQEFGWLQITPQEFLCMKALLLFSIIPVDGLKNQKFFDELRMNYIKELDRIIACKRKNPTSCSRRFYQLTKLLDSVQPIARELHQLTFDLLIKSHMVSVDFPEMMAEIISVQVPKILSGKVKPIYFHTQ

[4] = Apparent passive permeability from apical to basolateral side in MDCK-MDR1 cells in presence P-gp inhibitor; type: ADME, cell-based, Canis lupus familiaris; conditions: dog, MDCK-MDR1, with P-gp inhibitor (name and concentration not stated)
[5] = Oral bioavailability in CD1 mouse at 10 mg/kg; type: ADME, organism-based; conditions: CD1, mouse, in vivo
[6] = Volume of distribution at steady state in CD1 mouse at 2 mg/kg, iv; type: ADME, organism-based; conditions: in vivo, read-out: Vdss
[7] = AUC(0 to last) in CD1 mouse at 10 mg/kg, po; type: ADME, organism-based; set-up: route oral, time 0 - last, dose 10 mg/kg; conditions: CD1, mouse, in vivo
[8] = biological target: T2, Androgen receptor (Rattus norvegicus) (UniProt P15207); conditions: Sprague-Dawley, dose 30.0 mg/kg, time 10.0 day
T2 sequence (whole entry): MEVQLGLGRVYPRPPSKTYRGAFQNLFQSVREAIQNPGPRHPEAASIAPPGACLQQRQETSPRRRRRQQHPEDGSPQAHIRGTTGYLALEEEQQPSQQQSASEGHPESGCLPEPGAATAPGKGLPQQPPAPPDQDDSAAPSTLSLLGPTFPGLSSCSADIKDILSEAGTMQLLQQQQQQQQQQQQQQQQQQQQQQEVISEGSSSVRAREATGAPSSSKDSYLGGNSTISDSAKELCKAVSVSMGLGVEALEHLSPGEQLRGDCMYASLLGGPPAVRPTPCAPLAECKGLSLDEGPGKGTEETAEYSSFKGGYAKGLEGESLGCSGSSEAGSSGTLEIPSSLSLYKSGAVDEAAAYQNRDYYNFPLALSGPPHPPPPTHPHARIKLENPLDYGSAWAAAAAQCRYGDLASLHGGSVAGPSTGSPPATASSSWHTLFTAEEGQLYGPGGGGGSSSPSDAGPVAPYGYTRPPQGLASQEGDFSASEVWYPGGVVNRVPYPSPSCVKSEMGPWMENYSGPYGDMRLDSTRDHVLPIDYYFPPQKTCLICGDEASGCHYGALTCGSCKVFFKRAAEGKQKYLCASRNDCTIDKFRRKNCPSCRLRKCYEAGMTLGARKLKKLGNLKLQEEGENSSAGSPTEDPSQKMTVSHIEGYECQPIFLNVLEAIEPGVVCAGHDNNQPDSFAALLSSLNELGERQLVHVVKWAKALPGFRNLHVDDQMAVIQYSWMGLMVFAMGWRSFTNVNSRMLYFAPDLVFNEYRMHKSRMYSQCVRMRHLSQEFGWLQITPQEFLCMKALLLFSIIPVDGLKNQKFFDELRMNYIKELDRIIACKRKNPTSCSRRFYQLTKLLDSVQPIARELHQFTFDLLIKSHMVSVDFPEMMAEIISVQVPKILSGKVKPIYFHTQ

[9] = biological target: T2, Androgen receptor (Rattus norvegicus); conditions: Sprague-Dawley, dose 30.0 mg/kg, time 10.0 day; remark: listed apart in the source
[10] = Half life in CD1 mouse at 2 mg/kg, iv; type: ADME, organism-based; conditions: in vivo
[11] = biological target: T2, Androgen receptor (Rattus norvegicus); conditions: Sprague-Dawley, dose 30.0 mg/kg, time 10.0 day; remark: listed apart in the source
[12] = biological target: T2, Androgen receptor (Rattus norvegicus); conditions: Sprague-Dawley, dose 30.0 mg/kg, time 10.0 day; remark: listed apart in the source
[13] = Clearance in CD1 mouse at 2 mg/kg, iv; type: ADME, organism-based; conditions: in vivo
[14] = Cmax in CD1 mouse at 10 mg/kg, po; type: ADME, organism-based; set-up: route oral, dose 10 mg/kg; conditions: in vivo
[15] = biological target: T2, Androgen receptor (Rattus norvegicus); conditions: Sprague-Dawley, dose 30.0 mg/kg, time 10.0 day; remark: listed apart in the source
[16] = biological target: Androgen receptor (Homo sapiens, UniProt P10275, F877L)
[17] = Drug metabolism in dog liver microsomes assessed as unchanged parent compound at 10 uM incubated for 60 mins in presence of glutathione and NADPH by LC-MS/MS analysis; type: ADME, Canis lupus familiaris, Microsome; conditions: read-out: Drug metabolism
[18] = Drug metabolism in dog liver microsomes assessed as unchanged parent compound at 10 uM incubated for 60 mins in presence of glutathione by LC-MS/MS analysis; type: ADME, Canis lupus familiaris, Microsome; conditions: read-out: Drug metabolism
[19] = tested on: LNCaP; experiment: Antitumor activity against human LNCaP cells harboring AR F877L mutant xenografted in SCID mouse assessed as tumor growth inhibition at 30 mg/kg, po QD administered via gavage for 28 days and measured twice weekly relative to control; type: functional; conditions: time 28 day, read-out: TGI
[20] = Drug concentration in SCID mouse plasma xenografted with human LNCaP cells harboring AR F877L mutant at 30 mg/kg, po QD administered via gavage for 28 days; type: ADME, organism-based; conditions: time 28 day, read-out: Ct

| Structure (SMILES) | half-life [1] | pIC50 [2] | Imax [3] | Papp A→B [4] | bioavailability [5] | Vd [6] | AUC(0-t) [7] | inhibition [8] | inhibition [9] | half-life [10] | inhibition [11] | inhibition [12] | clearance [13] | Cmax [14] | inhibition [15] | pEC50 [16] | remaining at 1 h, 10 µM [17] | remaining at 1 h, 10 µM [18] | inhibition in vivo at 30 mg/kg [19] | concentration at […] [20] |
| --- | --- | --- | --- | --- | --- | --- | --- | --- | --- | --- | --- | --- | --- | --- | --- | --- | --- | --- | --- | --- |
| N#Cc1ncc(N2C(=O)C3(CCC3)N(c3ccc(CN4CCNCC4)cc3)C2=S)cc1C(F)(F)F | > 3 h | 5.56 | > 90% | 6.31 ×10⁻⁶ cm/s | 97% | 16.8 L/kg | 8700 ng·h/mL | inactive | inactive | 12.1 h | inactive | inactive | 18.2 mL/min/kg | 840 nM | inactive |  |  |  |  |  |
| N#Cc1ncc(N2C(=O)C3(CCC3)N(c3ccc(OC4CCNCC4)nc3)C2=S)cc1Cl | > 3 h | 6.60 | > 90% | 11.5 ×10⁻⁶ cm/s | 118% | 6.92 L/kg | 6000 ng·h/mL | Active | Active | 4.1 h | Active | Active | 25.4 mL/min/kg | 1880 nM | Active |  |  |  |  |  |
| COc1cc(N2C(=O)C3(CCC3)N(c3ccc(OC4CCN(C)CC4)cc3)C2=S)cnc1C#N | 1.9 h | 6.58 | > 90% |  | 87% | 3.7 L/kg | 20100 ng·h/mL | Active | Active | 7.8 h | Active | Active | 6.9 mL/min/kg | 2800 nM | Active | 6.19 |  |  |  |  |
| N#Cc1ncc(N2C(=O)C3(CCC3)N(c3cnc(OC4CCNCC4)nc3)C2=S)cc1C(F)(F)F |  |  | 67% |  |  |  |  |  |  |  |  |  |  |  |  |  |  |  |  |  |
| CN1CCC(Oc2ccc(N3C(=S)N(c4cnc(C#N)c(C(F)(F)F)c4)C(=O)C34CCC4)cn2)CC1 | 2.88 h | 6.40 | > 90% | 16.2 ×10⁻⁶ cm/s | 56% | 7.69 L/kg | 10900 ng·h/mL |  |  | 12.5 h |  |  | 8.14 mL/min/kg | 1300 nM |  |  |  |  |  |  |
| N#Cc1ncc(N2C(=O)C3(CCC3)N(c3ccc(OC4CCNCC4)cc3)C2=S)cc1Cl | > 3 h | 6.30 | > 90% | 12.2 ×10⁻⁶ cm/s | 50% | 8.47 L/kg | 4600 ng·h/mL | Active | Active | 3.7 h | Active | Active | 26.7 mL/min/kg | 780 nM | Active | 7.35 |  |  |  |  |
| Cc1cc(N2C(=O)C3(CCC3)N(c3ccc(OC4CCNCC4)nc3)C2=S)cnc1C#N | > 3 h | 6.58 | > 90% | 3.38 ×10⁻⁶ cm/s | 92% | 4.35 L/kg | 7800 ng·h/mL |  |  | 3 h |  |  | 19.4 mL/min/kg | 1880 nM |  |  |  |  |  |  |
| N#Cc1ncc(N2C(=O)C3(CCC3)N(c3ccc(O)nc3)C2=S)cc1C(F)(F)F |  |  | > 90% |  |  |  |  |  |  |  |  |  |  |  |  |  | 100% | 100% |  |  |
| CN1CCC(Oc2ncc(N3C(=S)N(c4cnc(C#N)c(C(F)(F)F)c4)C(=O)C34CCC4)cn2)CC1 |  |  | > 90% |  |  |  |  |  |  |  |  |  |  |  |  |  |  |  |  |  |
| N#Cc1ncc(N2C(=O)C3(CCC3)N(c3ccc(OC4CCNCC4)nc3)C2=S)cc1C(F)(F)F [TRC-253] | > 3 h | 6.58 | > 90% | 5.62 ×10⁻⁶ cm/s | 45% | 6.11 L/kg | 4900 ng·h/mL | Active | Active | 5.99 h | Active | Active | 15 mL/min/kg | 660 nM | Active |  | 98.8% | 100% | 87% | 1750 ng/mL |
| CNC(=O)c1ccc(N2C(=S)N(c3ccc(C#N)c(C(F)(F)F)c3)C(=O)C2(C)C)cc1F [ENZALUTAMIDE] |  | 6.83 |  |  |  |  |  | Active | Active |  | Active | Active |  |  | Active |  |  |  |  |  |
| N#Cc1ncc(N2C(=O)C3(CCC3)N(c3ccc(O)cc3)C2=S)cc1C(F)(F)F |  |  |  |  |  |  |  |  |  |  |  |  |  |  |  |  | 91.9% |  |  |  |

From ChEMBL document CHEMBL4819022, “Discovery of JNJ-63576253: A Clinical Stage Androgen Receptor Antagonist for F877L Mutant and Wild-Type Castration-Resistant Prostate Cancer (mCRPC)” (J Med Chem, 2021)
